# Results published in ChEMBL document CHEMBL1201862, “PubChem BioAssay data set” (2004).
# The source made the active and inactive calls. Cut-off read from the data, not from the text of the source, for most assays here: actives have a measured IC50 and inactives only a lower limit.
# Experiments:
# Assay type in all cases: functional
# [1] = target: T1, Sentrin-specific protease 8 (Homo sapiens, UniProt Q96LD8); experiment: SENP8 protease inhibitors, SAR follow-up, biochemical, luminescence (AID 504501)
# T1 sequence (Q96LD8 whole entry): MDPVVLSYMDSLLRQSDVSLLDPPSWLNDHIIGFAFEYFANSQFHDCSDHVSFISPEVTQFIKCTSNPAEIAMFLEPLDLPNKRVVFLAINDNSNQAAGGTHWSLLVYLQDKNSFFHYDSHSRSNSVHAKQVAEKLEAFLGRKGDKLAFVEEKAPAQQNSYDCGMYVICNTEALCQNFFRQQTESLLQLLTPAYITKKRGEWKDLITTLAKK
# Caspase-3 [2] = target: T2, Caspase-3 (Homo sapiens, UniProt P42574); experiment: caspase-3 inhibitors as off-family protease, SAR follow-up, selectivity assay for SENP protease inhibitor project, biochemical, luminescence, set 2 (AID 588599)
# T2 sequence (P42574 whole entry): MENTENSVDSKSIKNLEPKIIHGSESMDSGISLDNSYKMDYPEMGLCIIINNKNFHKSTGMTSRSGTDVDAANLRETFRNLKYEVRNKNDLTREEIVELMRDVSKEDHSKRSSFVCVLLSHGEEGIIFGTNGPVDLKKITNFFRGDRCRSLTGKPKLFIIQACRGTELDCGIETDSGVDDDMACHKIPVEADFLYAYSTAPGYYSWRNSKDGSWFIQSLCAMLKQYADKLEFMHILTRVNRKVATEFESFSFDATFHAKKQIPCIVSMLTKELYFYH
# [3] = target: T1, Sentrin-specific protease 8; experiment: SENP8 protease inhibitors, SAR follow-up, biochemical, luminescence, set 2 (AID 588601)
# Caspase-3 [4] = target: T2, Caspase-3; experiment: SAR Analysis of small molecule inhibitors of Sentrin-specific proteases (SENPs) using a Caspase-3 Selectivity assay. [Related pubchem assays (depositor defined):AID2540, AID2599, AID434973, AID489001]
# [5] = target: T3, Sentrin-specific protease 7 (Homo sapiens, UniProt Q9BQF6); experiment: SENP7 protease inhibitors, SAR follow-up, biochemical, luminescence, set 2 (AID 588600)
# T3 sequence (Q9BQF6 whole entry): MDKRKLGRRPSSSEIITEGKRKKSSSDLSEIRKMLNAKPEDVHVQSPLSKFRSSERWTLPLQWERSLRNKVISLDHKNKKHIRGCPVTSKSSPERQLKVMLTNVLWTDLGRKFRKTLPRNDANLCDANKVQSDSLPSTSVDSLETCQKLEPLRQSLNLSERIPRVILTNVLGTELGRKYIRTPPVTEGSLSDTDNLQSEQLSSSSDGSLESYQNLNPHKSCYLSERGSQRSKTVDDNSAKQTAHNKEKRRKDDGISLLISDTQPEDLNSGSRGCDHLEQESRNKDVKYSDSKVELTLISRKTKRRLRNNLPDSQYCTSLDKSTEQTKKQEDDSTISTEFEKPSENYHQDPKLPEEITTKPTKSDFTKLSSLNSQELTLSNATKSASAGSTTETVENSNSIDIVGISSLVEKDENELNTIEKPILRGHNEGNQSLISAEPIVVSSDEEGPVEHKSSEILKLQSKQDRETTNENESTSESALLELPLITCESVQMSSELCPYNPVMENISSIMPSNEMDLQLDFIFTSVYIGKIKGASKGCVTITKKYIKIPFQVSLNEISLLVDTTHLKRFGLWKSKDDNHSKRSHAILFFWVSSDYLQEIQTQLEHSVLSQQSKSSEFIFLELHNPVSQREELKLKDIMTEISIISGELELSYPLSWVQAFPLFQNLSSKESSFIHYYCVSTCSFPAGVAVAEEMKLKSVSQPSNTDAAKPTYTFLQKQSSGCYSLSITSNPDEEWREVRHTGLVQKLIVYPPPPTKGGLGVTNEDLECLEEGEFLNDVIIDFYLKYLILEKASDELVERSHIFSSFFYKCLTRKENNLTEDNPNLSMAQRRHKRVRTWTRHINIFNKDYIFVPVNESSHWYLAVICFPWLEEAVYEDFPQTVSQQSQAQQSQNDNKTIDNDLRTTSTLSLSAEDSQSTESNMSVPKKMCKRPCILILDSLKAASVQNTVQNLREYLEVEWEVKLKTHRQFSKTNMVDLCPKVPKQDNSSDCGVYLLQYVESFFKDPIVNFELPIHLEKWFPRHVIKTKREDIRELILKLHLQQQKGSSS
# [6] = target: T4, Sentrin-specific protease 6 (Homo sapiens, UniProt Q9GZR1); experiment: SAR Analysis of small molecule inhibitors of Sentrin-specific protease 6 (SENP6) using a Luminescent assay. [Related pubchem assays (depositor defined):AID2582, AID2599]
# T4 sequence (Q9GZR1 whole entry): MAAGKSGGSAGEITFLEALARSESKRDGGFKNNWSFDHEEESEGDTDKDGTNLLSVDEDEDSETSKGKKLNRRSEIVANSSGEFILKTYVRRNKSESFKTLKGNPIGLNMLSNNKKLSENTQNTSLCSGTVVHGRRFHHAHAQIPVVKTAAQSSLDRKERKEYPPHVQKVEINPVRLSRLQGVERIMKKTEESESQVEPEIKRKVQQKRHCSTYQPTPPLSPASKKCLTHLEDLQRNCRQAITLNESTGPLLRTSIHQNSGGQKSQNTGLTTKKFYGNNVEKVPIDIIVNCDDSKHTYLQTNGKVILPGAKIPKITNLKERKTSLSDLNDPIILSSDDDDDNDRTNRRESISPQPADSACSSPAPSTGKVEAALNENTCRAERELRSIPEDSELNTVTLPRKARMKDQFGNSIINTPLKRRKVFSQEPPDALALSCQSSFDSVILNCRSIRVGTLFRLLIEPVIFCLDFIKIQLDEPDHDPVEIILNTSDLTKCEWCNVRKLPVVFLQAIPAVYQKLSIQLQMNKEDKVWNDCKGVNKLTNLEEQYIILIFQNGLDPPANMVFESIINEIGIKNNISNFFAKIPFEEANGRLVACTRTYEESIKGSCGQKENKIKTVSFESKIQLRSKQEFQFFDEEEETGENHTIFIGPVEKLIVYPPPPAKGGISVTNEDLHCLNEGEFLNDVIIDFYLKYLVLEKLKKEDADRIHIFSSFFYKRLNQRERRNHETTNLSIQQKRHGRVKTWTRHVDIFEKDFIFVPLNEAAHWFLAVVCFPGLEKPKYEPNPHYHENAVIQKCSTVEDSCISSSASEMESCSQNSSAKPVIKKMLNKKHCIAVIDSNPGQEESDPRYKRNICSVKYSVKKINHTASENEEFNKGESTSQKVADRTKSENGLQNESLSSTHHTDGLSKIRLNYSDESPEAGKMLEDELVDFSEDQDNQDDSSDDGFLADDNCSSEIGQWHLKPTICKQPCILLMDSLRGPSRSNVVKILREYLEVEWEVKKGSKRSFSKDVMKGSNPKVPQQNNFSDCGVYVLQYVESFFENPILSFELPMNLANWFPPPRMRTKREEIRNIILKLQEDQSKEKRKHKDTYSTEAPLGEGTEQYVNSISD
# [7] = target: T4, Sentrin-specific protease 6; experiment: SENP6 protease inhibitors, SAR follow-up, biochemical, luminescence, set 2 (AID 588598)
# [8] = target: T3, Sentrin-specific protease 7; experiment: SENP7 protease inhibitors, SAR follow-up, biochemical, luminescence (AID 504497)
# [9] = target: Melanin-concentrating hormone receptor 1 (Homo sapiens, UniProt Q99705); experiment: Late-stage fluorescence-based counterscreen for antagonists of the G-protein coupled receptor 7 (GPR7): cell-based dose response assay to identify antagonists of the melanin-concentrating hormone receptor 1 (MCHR1) Set 6.
# Sequence of Melanin-concentrating hormone receptor 1 (Q99705 whole entry): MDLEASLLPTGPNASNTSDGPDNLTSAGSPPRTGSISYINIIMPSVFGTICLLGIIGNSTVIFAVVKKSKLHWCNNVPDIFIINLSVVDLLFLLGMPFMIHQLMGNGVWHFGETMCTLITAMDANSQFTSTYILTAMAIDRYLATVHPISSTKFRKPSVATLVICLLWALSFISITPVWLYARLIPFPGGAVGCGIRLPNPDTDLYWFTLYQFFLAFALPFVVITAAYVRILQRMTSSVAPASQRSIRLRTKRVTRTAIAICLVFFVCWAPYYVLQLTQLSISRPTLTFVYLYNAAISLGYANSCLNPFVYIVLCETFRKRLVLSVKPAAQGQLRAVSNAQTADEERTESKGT
# [10] = target: T5, Neuropeptides B/W receptor type 1 (Homo sapiens, UniProt P48145); experiment: GPR7 antagonist potency, late-stage follow-up, cell-based, fluorescence, dose response, set 6 (AID 588583)
# T5 sequence (P48145 whole entry): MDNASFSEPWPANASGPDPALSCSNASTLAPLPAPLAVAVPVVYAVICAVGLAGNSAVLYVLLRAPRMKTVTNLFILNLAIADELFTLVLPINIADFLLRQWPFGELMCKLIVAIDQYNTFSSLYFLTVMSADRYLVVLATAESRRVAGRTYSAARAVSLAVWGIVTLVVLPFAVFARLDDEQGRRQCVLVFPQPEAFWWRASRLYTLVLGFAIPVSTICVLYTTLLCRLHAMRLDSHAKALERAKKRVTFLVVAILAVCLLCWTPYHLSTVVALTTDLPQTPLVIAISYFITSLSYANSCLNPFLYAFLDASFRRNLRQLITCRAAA
IC50 (Caspase-3 [2]),IC50 (Caspase-3 [4]),IC50 [5],IC50 [6],IC50 [7],IC50 [8],IC50 [9],IC50 [10],SMILES,IC50 [1],IC50 [3]
1010 nM (active),900 nM (active),1540 nM (active),2100 nM (active),1490 nM (active),1400 nM (active),,,O=C(Nc1nc2ccccc2s1)c1nccs1,2100 nM (active),1550 nM (active)
> 99000 nM (inactive),,> 99000 nM (inactive),,> 99000 nM (inactive),,,,CCN(C(=O)c1cc(S(=O)(=O)N(CC)CC)ccc1C)c1nc2ccccc2s1,,> 99000 nM (inactive)
,,,,,,136 nM (active),136 nM (active),Cc1cc(C(C#N)c2c(Cl)cnn(Cc3cccc4ccccc34)c2=O)on1 (stereo unspecified),,
,,,,,,12000 nM (inactive),12000 nM (inactive),O=c1c(-c2ccccc2)c(Br)cnn1Cc1cccc2ccccc12,,
